Biological target: T1, human RXFP3 (Homo sapiens, UniProt Q9NSD7)
T1 construct: expressed in transfected cells; host or cells: HEK293T
T1 sequence (Q9NSD7 1-469): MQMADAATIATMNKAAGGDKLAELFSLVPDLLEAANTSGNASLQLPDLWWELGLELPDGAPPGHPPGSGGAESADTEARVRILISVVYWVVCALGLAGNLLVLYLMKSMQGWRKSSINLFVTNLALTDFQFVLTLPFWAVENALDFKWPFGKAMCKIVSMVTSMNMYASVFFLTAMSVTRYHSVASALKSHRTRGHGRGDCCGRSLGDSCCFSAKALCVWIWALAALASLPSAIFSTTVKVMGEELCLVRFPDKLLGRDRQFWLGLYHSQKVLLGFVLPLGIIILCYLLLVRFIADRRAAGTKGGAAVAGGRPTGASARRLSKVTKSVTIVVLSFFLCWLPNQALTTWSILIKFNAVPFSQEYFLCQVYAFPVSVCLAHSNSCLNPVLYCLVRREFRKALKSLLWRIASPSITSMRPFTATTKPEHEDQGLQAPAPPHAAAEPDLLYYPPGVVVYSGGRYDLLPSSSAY
Test: Receptor activation assay, CRE-controlled NanoLuc reporter
Format: cell-based
Protocol: Figure 4 Receptor activation activities of the mature INSL5 and R3/I5 mutants towards RXFP3 and RXFP4. HEK293T cells transiently cotransfected by human RXFP3 or human RXFP4 and a CRE-controlled NanoLuc reporter were used for the activation assays. The measured data were expressed as mean ± SE (n = 3) and fitted to sigmoidal or linear curves using the software SigmaPlot 10.0.
The receptor activation assays of the mature INSL5 and R3/I5 mutants were carried out using a cAMP-response element (CRE)-controlled NanoLuc reporter according to our previous procedure. Briefly, HEK293T cells were transiently cotransfected with the expression construct of human RXFP3 or human RXFP4 and the CRE-controlled NanoLuc reporter vector pNL1.2/CRE. Next day, the transfected cells were trypsinised, seeded into a 96-well plate, and continuously cultured for 24–36 h to ~90% confluence. To start activation assay, the medium was removed and the activation solution (serum-free DMEM medium plus 1% bovine serum albumin) containing 1.0 μM of forskolin and varied concentrations of peptide was added (100 μl/well). After being continuously cultured at 37 °C for 4 h, the activation solution was removed and the cells were lysed by lysis solution (100 μl/well, from Promega). The cell lysate was then transferred to a white opaque 96-well plate (50 μl/well), mixed with the freshly diluted substrate (50 μl/well), and bioluminescence was immediately measured on a SpectraMax M5 plate reader (Molecular Devices) using the luminescence mode. The measured bioluminescence data were expressed as mean ± SE (n = 3) and fitted to sigmoidal or linear curves using the SigmaPlot10.0 software.

| Structure (SMILES) | fold lower activation potency towards RXFP3 than relaxin-3 (lower than relaxin-3) | fold lower activation potency towards RXFP3 compared with wild-type R3/I5 (lower than wild-type R3/I5) |
| --- | --- | --- |
| CC[C@H](C)[C@@H]1NC(=O)[C@H](Cc2ccccc2)NC(=O)[C@H]([C@@H](C)CC)NC(=O)[C@H](C(C)C)NC(=O)[C@H]([C@@H](C)O)NC(=O)[C@H](CCCNC(=N)N)NC(=O)[C@H]([C@@H](C)CC)NC(=O)[C@H](Cc2ccc(O)cc2)NC(=O)[C@H](CCC(=O)O)NC(=O)[C@H](CCCNC(=N)N)NC(=O)CNC(=O)[C@@H](NC(=O)[C@H](CC(C)C)NC(=O)[C@H](CCCNC(=N)N)NC(=O)[C@@H](NC(=O)[C@H](CO)NC(=O)[C@H](CCC(=O)O)NC(=O)[C@@H](N)CCCCN)C(C)C)CSSC[C@@H]2NC(=O)[C@@H](NC(=O)[C@H](CC(C)C)NC(=O)[C@@H](NC(=O)[C@H](CCC(N)=O)NC(=O)[C@H](CC(C)C)NC(=O)[C@H](CC(=O)O)NC(=O)[C@@H](N)CCC(N)=O)[C@@H](C)O)CSSC[C@H](NC(=O)CNC(=O)[C@H](CC(=O)O)NC(=O)[C@H]([C@@H](C)O)NC2=O)C(=O)N[C@@H](CO)C(=O)N[C@@H](CCSC)C(=O)N[C@@H]([C@@H](C)O)C(=O)N[C@@H](CC(=O)O)C(=O)N[C@@H](CC(C)C)C(=O)N[C@@H](CO)C(=O)N[C@@H](C)C(=O)N[C@@H](CC(C)C)C(=O)N[C@H](C(=O)O)CSSC[C@@H](C(=O)NCC(=O)NCC(=O)N[C@@H](CO)C(=O)N[C@@H](CCCNC(=N)N)C(=O)N[C@@H](Cc2c[nH]c3ccccc23)C(=O)O)NC1=O [[L(B9)R,Y(B17)F,A(B20)G,S(B21)G]INSL5] | ~ 100 fold |  |
| CC[C@H](C)[C@@H]1NC(=O)[C@H](Cc2ccccc2)NC(=O)[C@H](CCC(=O)O)NC(=O)[C@H](CCCNC(=N)N)NC(=O)CNC(=O)[C@@H](NC(=O)[C@H](CC(C)C)NC(=O)[C@H](CCCCN)NC(=O)[C@@H](NC(=O)CNC(=O)[C@H](CCC(=O)O)NC(=O)[C@@H]2CCCN2C(=O)[C@H](C)NC(=O)[C@H](C)NC(=O)[C@@H](N)CCCNC(=N)N)C(C)C)CSSC[C@@H]2NC(=O)[C@@H](NC(=O)[C@H](CC(C)C)NC(=O)[C@@H](NC(=O)[C@H](CCC(N)=O)NC(=O)[C@H](CC(C)C)NC(=O)[C@H](CC(=O)O)NC(=O)[C@@H](N)CCC(N)=O)[C@@H](C)O)CSSC[C@H](NC(=O)CNC(=O)[C@H](CC(=O)O)NC(=O)[C@H]([C@@H](C)O)NC2=O)C(=O)N[C@@H](CO)C(=O)N[C@@H](CCSC)C(=O)N[C@@H]([C@@H](C)O)C(=O)N[C@@H](CC(=O)O)C(=O)N[C@@H](CC(C)C)C(=O)N[C@@H](CO)C(=O)N[C@@H](C)C(=O)N[C@@H](CC(C)C)C(=O)N[C@H](C(=O)O)CSSC[C@@H](C(=O)NCC(=O)NCC(=O)N[C@@H](CO)C(=O)N[C@@H](CCCNC(=N)N)C(=O)N[C@@H](Cc2c[nH]c3ccccc23)C(=O)O)NC(=O)[C@H]([C@@H](C)O)NC(=O)[C@H](Cc2ccccc2)NC(=O)[C@H]([C@@H](C)CC)NC(=O)[C@H](C(C)C)NC(=O)[C@H](C)NC(=O)[C@H](CCCNC(=N)N)NC1=O [[Y(B5)E]R3/I5] |  | ~ 6 fold |
